According to US20100035822A1, “PROLINE-RICH PEPTIDES, PHARMACEUTICAL COMPOSITION, USE OF ONE OR MORE PEPTIDES AND METHOD OF TREATMENT” (priority 2006, published 2010):

How the values were obtained:
[1] = system: spontaneously hypertensive rats (SHR); test: Anti-hypertensive action on SHR anaesthetized with pentobarbitone; assay type: in vivo, rat
Procedure: Adult male SHR, weighing between 250 and 350 g, were used. Material and methods described in Example 12 were employed, except for those described below.
1) Five SHR per group were anaesthetized intraperitoneally with 60 mg/Kg body weight with sodium pentobarbitone. Mean arterial blood pressure and heart rate were continuously calculated from arterial blood pressure pulses (PAP). Cardiovascular parameters were monitored during 30 minutes before i.v. administration of peptides SEQ ID NO 1, or SEQ ID NO 4, or SEQ ID NO 8 (71 nmoles/Kg body weight), or captopril (10 μmoles/Kg body weight), in a final volume of 0.5 mL 0.9% NaCl solution. The control was the vehicle (0.9% NaCl). PAM and heart rate were continuously monitored up to 180 minutes after administration of the anti-hypertensive compound.
2) The day before measurements, the SHR underwent surgery for catheter implantation into the femoral artery and vein. […] Cardiovascular parameters of the rats were monitored for 60 minutes before i.v. administration of peptides SEQ ID NO 1, or SEQ ID NO 4, or SEQ ID NO 8 (71 nmoles/Kg body weight), or captopril (10 μmoles/Kg body weight), in a final volume of 0.5 mL 0.9% NaCl solution. […] MAP and heart rate were continuously monitored up to 360 minutes after administration of the peptides.
Results, presented in FIG. 14B, are expressed as mean±SEM. […]

[2] = system: renal nitric oxide synthase (NOS); test: Activation of kidney NOS in mice (3H-arginine to 3H-citrulline conversion); assay type: in vivo, mouse
Procedure: Male Swiss albinos weighing 22-25 g were injected intraperitoneally with: (1) 50 μl 0.9% NaCl (basal level control), or with 0.9% NaCl supplemented with LPS (2 mg/Kg) (positive control); (2) SEQ ID NO 8 (0.21, 0.91, and 3.47 mg/Kg); (3) SEQ ID NO 8 (0.91 mg/Kg) injected into animals pre-treated via intraperitoneally with L-NAME (3 mg/Kg for 1 h); (4) SEQ ID NO 8 (0.91 mg/Kg) injected into animals pre-treated via intraperitoneally with HOE140 (10 μg/Kg for 1 h); (5) captopril (0.21, 0.91, and 3.47 mg/Kg). After 5, 15, 30, 60, 120, and 180 min, animals were killed, their kidneys removed and stored at −70° C. Animals of group 3 and 4 were killed 30 minutes after administration of the oligopeptide.
NOS activity was measured according to Bredt and Snyder [Bredt D S and Snyder S H. Isolation of nitric oxide synthetase, a calmodulin-requiring enzyme. Proc. Natl. Acad. Sci. USA, 87, 682-685, 1990], and is based on estimating the enzymatic activity of the conversion of L-arginine into L-citrulline using ^3H-arginine as a reference for the conversion.
The kidneys were minced in homogenizing buffer, pH 7.4 (20 mM HEPES, 0.32 M saccharose, 1 mM DTT, 0.1 mM EDTA, 1 mM PMSF), and sonicated. Protein dosage was performed according to Bradford (1976), followed by a chromatography step in a 300 μL Dowex 50WX8-400 column.
For the enzymatic assay, 80 μg total protein from each sample were incubated for 60 minutes at 37° C. in 200 μL buffer (30 mM HEPES, 1 mM EDTA, 1.25 mM CaCl2, 1 mM NADPH, 10 μg/mL calmodulin, 4 μM FAD, 4 μM FMN, 25 μM BH4, 120 nM arginine, 0.5 μCi ^3H-arginine). The reaction was stopped by the addition of 1 ml 20 mM HEPES, and incubation in ice bath. ^3H-citrulline was separated from ^3H-arginine by ion-exchange chromatography in a 300 μL Dowex 50WX8-400 column. Radioactivity of the eluates was measured in a beta-counter. After converting cpm (counts per minute) into dpm (disintegration per minute), the specific activity of the nitric oxide synthase (NOS) was calculated using the following equation: […]

[3] = system: spontaneously hypertensive rats (SHR); test: Anti-hypertensive effect on mean arterial blood pressure of SHR; assay type: in vivo, rat
Procedure: In vivo studies on the effect of peptides of the present invention were performed on adult male spontaneously hypertensive rats, and normotensive Wistar rats (Rattus novergicus) weighing 250 to 350 g. Animals had free access to chow (Nuvilab) and water, and were submitted to a light-dark cycle of 12 hours each. Procedures involving animals and their care were conducted according to Giles [Giles A. R. Guidelines for the use of animals in biomedical research. Thromb. Haemost. 58: 1078-1084, 1987]. […]
The cardiovascular parameters (pulse arterial pressure (PAP), mean arterial pressure (MAP), and heart rate (HR)) were monitored by a solid-state strain gauge transducer connected to a computer through a data acquisition system (MP 100; BIOPAC Systems, Inc, Santa Barbara, Calif., USA). The PAP, MAP and HR were continuously presented in different monitor channels and recorded in the computer hard disk for late analysis.
Before drug administration, cardiovascular parameters of the rats were monitored for 40 minutes. […] Arterial blood pressure and heart frequency were continuously monitored for 360 minutes.
Results were expressed as the mean variation of MAP±standard deviation. […]

Compound	effect of pentobarbitone on the anti-hypertensive action [1]	activation of mouse renal NOS activity ([2]; approximately 1 mg/Kg body weight)	dose of optimum anti-hypertensive activity ([3]; effect is reduced at higher and at lower doses)	renal NOS activity after injection ([2]; 0.2-3.5 mg/Kg of body weight)	molar dose needed for anti-hypertensive activity relative to the peptides ([3]; e.g. 10 μmoles/Kg, the dose that inhibits ACE in vivo)
<ENWPHPQIPP [SEQ ID NO 8]	susceptible to the action of pentobarbitone	approximately 60%	~71 nmoles/Kg of body weight	–	–
CC(CS)C(=O)N1CCC[C@@H]1C(=O)O (stereo partly drawn) [captopril, D-3-mercapto-2-methyl-1-oxopropyl-L-proline, reference compound]	not blocked by pentobarbitone	–	–	No significant renal NOS activity	approximately 1000 fold
